From PubChem BioAssay AID330 (DTP/NCI, 2004)
Several values for one entry are separate records, joined by “and”; a condition that tells them apart may be missing. Equal entries are not always repeated. Inconclusive results and toxic doses are left out.

Tested on: P388 leukemia ip, CD2F1 mice, survival T/C
Test: NCI In Vivo Anticancer Drug Screen. Data for tumor model P388 Leukemia (intraperitoneal) in CD2F1 (CDF1) mice
Settings: endpoint: median survival time, higher = longer survival
Outline: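 Mice carrying the transplanted tumor received test compound or vehicle. Survival was recorded in each group, and the value is the treated-group measurement divided by that of the vehicle-treated control group.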

[1] = dose: 50.0 mg/kg/injection, schedule: Q01DX009 (ip), vehicle: saline
[2] = dose: 50.0 mg/kg/injection, schedule: Q04DX003 (ip), vehicle: saline with Tween-80
[3] = dose: 60.0 mg/kg/injection, schedule: Q01DX005 (ip), vehicle: saline with Tween-80
[4] = dose: 120.0 mg/kg/injection, schedule: Q01DX005 (ip), vehicle: saline with Tween-80
[5] = dose: 240.0 mg/kg/injection, schedule: Q01DX005 (ip), vehicle: saline with Tween-80
[6] = dose: 100.0 mg/kg/injection, schedule: Q01DX009 (ip), vehicle: saline with Tween-80
[7] = dose: 200.0 mg/kg/injection, schedule: Q01DX009 (ip), vehicle: saline with Tween-80
[8] = dose: 100.0 mg/kg/injection, schedule: Q01DX009 (ip), vehicle: saline
[9] = dose: 200.0 mg/kg/injection, schedule: Q01DX009 (ip), vehicle: saline
[10] = dose: 100.0 mg/kg/injection, schedule: Q04DX003 (ip), vehicle: saline with Tween-80
[11] = dose: 200.0 mg/kg/injection, schedule: Q04DX003 (ip), vehicle: saline with Tween-80
[12] = dose: 50.0 mg/kg/injection, schedule: Q01DX005 (ip), vehicle: saline with Tween-80
[13] = dose: 25.0 mg/kg/injection, schedule: Q01DX009 (ip), vehicle: saline with Tween-80
[14] = dose: 400.0 mg/kg/injection, schedule: Q01DX009 (ip), vehicle: saline with Tween-80

S=P(N1CCCCCC1)(N1CC1)N1CC1
T/C (dose: 12.5 mg/kg/injection, schedule: Q04DX003 (ip), vehicle: saline with Tween-80): 109 % of control
T/C (dose: 16.5 mg/kg/injection, schedule: Q01DX009 (ip), vehicle: saline): 108 % of control
T/C (dose: 33.0 mg/kg/injection, schedule: Q04DX003 (ip), vehicle: saline sonified): 109 % of control
T/C (dose: 37.5 mg/kg/injection, schedule: Q01DX009 (ip), vehicle: saline): 183 % of control
T/C [1]: 95 % of control
T/C (dose: 50.0 mg/kg/injection, schedule: Q04DX003 (ip), vehicle: saline sonified): 118 % of control
T/C [2]: 154 % of control

C[Si](C)(C)Cc1ccccc1C(=O)O
T/C [3]: 100 % of control
T/C [4]: 103 % of control
T/C [5]: 94 % of control

Cc1cccc(Oc2cnc(=O)[nH]c2)c1
T/C (dose: 50.0 mg/kg/injection, schedule: Q01DX009 (ip), vehicle: saline with Tween-80): 100 % of control
T/C [6]: 93 % of control
T/C [7]: 99 % of control

O=C(O)CCc1ccc(O)c(O)c1
T/C [1]: 102 % of control and 111 % of control
T/C [8]: 100 % of control and 111 % of control
T/C [9]: 108 % of control and 110 % of control
T/C (dose: 400.0 mg/kg/injection, schedule: Q01DX009 (ip), vehicle: saline): 111 % of control and 115 % of control

O=[N+]([O-])c1cccnc1N=Nc1c(O)[nH]c2ccccc12
T/C [3]: 100 % of control
T/C [4]: 101 % of control
T/C [5]: 110 % of control

COc1cc(O)ccc1C(=S)SC
T/C [10]: 106 % of control
T/C [11]: 99 % of control

COC1=CC(=O)c2nc(Cl)ccc2C1=O
T/C (dose: 6.25 mg/kg/injection, schedule: Q01DX005 (ip), vehicle: saline with Tween-80): 100 % of control
T/C (dose: 12.5 mg/kg/injection, schedule: Q01DX005 (ip), vehicle: saline with Tween-80): 100 % of control
T/C (dose: 25.0 mg/kg/injection, schedule: Q01DX005 (ip), vehicle: saline with Tween-80): 108 % of control and 92 % of control
T/C [12]: 100 % of control

Nc1cc2c(c[n+](CCCCCCCC[n+]3cc4c5ccccc5c(N)cc4c4ccccc43)c3ccccc23)c2ccccc12
T/C (dose: 1.56 mg/kg/injection, schedule: Q04DX003 (ip), vehicle: other): 161 % of control
T/C (dose: 3.13 mg/kg/injection, schedule: Q04DX003 (ip), vehicle: other): 158 % of control and 161 % of control
T/C (dose: 6.25 mg/kg/injection, schedule: Q04DX003 (ip), vehicle: other): 152 % of control and 205 % of control
T/C (dose: 12.5 mg/kg/injection, schedule: Q04DX003 (ip), vehicle: other): 168 % of control
T/C (dose: 25.0 mg/kg/injection, schedule: Q04DX003 (ip), vehicle: other): 93 % of control
T/C (dose: 50.0 mg/kg/injection, schedule: Q04DX003 (ip), vehicle: other): 86 % of control

O=C(NC1=NN(Cc2ccccc2)C(=O)C1)c1ccc(S(=O)(=O)F)cc1
T/C [3]: 113 % of control
T/C [4]: 121 % of control

[O-][n+]1nccnc1N1CCCCC1
T/C (dose: 100.0 mg/kg/injection, schedule: Q04DX002 (ip), vehicle: saline): 90 % of control
T/C (dose: 200.0 mg/kg/injection, schedule: Q04DX002 (ip), vehicle: saline): 98 % of control
T/C (dose: 400.0 mg/kg/injection, schedule: Q04DX002 (ip), vehicle: saline): 100 % of control

COc1cc(C(C)(C)C)cc(OC)c1C(O)(c1c(OC)cc(C(C)(C)C)cc1OC)c1c(OC)cc(C(C)(C)C)cc1OC
T/C [13]: 121 % of control
T/C [6]: 104 % of control

CC(=O)c1cccc(OCC(O)CN2CCN(c3ccc(C)cc3)CC2)c1 (configuration not stated)
T/C (dose: 100.0 mg/kg/injection, schedule: Q04DX003 (ip), vehicle: Klucel (hydroxypropylcellulose) (HPC)): 107 % of control
T/C (dose: 400.0 mg/kg/injection, schedule: Q04DX003 (ip), vehicle: Klucel (hydroxypropylcellulose) (HPC)): 91 % of control

CCOc1ccc2c(c1)/C(=C\C=C\C1CC(C)C3CC(OCC)CCC3N1CC)CC(C)N2CC (configuration not stated)
T/C (dose: 1.25 mg/kg/injection, schedule: Q01DX009 (ip), vehicle: saline + alcohol): 120 % of control

O=C1c2ccccc2C(=O)N1Cc1ccccc1[N+](=O)[O-]
T/C (dose: 6.25 mg/kg/injection, schedule: Q01DX009 (ip), vehicle: saline with Tween-80): 95 % of control
T/C (dose: 12.5 mg/kg/injection, schedule: Q01DX009 (ip), vehicle: saline with Tween-80): 88 % of control
T/C [13]: 89 % of control
T/C [8]: 98 % of control
T/C [9]: 102 % of control

CCCCCCCCCCCCCCCCCC(=O)NC(CC(=O)OCCCCCC)c1ccc(N(CCCl)CCCl)cc1 (configuration not stated)
T/C (dose: 4.3 mg/kg/injection, schedule: Q01DX009 (ip), vehicle: saline): 163 % of control
T/C (dose: 8.6 mg/kg/injection, schedule: Q01DX009 (ip), vehicle: saline): 186 % of control
T/C (dose: 8.6 mg/kg/injection, schedule: Q03HX008 (ip), vehicle: saline): 150 % of control
T/C (dose: 17.2 mg/kg/injection, schedule: Q01DX009 (ip), vehicle: saline): 213 % of control
T/C (dose: 17.2 mg/kg/injection, schedule: Q03HX008 (ip), vehicle: saline): 165 % of control
T/C (dose: 34.4 mg/kg/injection, schedule: Q03HX008 (ip), vehicle: saline): 200 % of control
T/C (dose: 34.5 mg/kg/injection, schedule: Q03HX008 (ip), vehicle: saline): 250 % of control
T/C (dose: 68.8 mg/kg/injection, schedule: Q03HX008 (ip), vehicle: saline): 315 % of control
T/C (dose: 138.0 mg/kg/injection, schedule: Q03HX008 (ip), vehicle: saline): 168 % of control
T/C (dose: 275.0 mg/kg/injection, schedule: Q03HX008 (ip), vehicle: saline): 163 % of control

O=C1Oc2nc3ccccc3cc2/C1=C/c1ccccc1
T/C (dose: 100.0 mg/kg/injection, schedule: Q04DX002 (ip), vehicle: saline with Tween-80): 89 % of control
T/C (dose: 200.0 mg/kg/injection, schedule: Q04DX002 (ip), vehicle: saline with Tween-80): 92 % of control
T/C (dose: 400.0 mg/kg/injection, schedule: Q04DX002 (ip), vehicle: saline with Tween-80): 99 % of control

CC1(C)C(=O)C2=C(Nc3ccccc3C2C(C)(C)C)c2ccccc21 (configuration not stated)
T/C (dose: 50.0 mg/kg/injection, schedule: Q01DX005 (ip), vehicle: Klucel (hydroxypropylcellulose) (HPC)): 99 % of control
T/C (dose: 100.0 mg/kg/injection, schedule: Q01DX005 (ip), vehicle: Klucel (hydroxypropylcellulose) (HPC)): 93 % of control
T/C (dose: 200.0 mg/kg/injection, schedule: Q01DX005 (ip), vehicle: Klucel (hydroxypropylcellulose) (HPC)): 92 % of control

CCOc1ccc(Br)cc1/C=N\N=C\c1cc(Br)ccc1OCC
T/C [6]: 90 % of control
T/C [10]: 95 % of control
T/C [7]: 100 % of control
T/C [11]: 95 % of control
T/C [14]: 100 % of control
T/C (dose: 400.0 mg/kg/injection, schedule: Q04DX003 (ip), vehicle: saline with Tween-80): 100 % of control

O=[N+]([O-])c1ccsc1SSc1sccc1[N+](=O)[O-]
T/C (dose: 25.0 mg/kg/injection, schedule: Q04DX003 (ip), vehicle: saline with Tween-80): 102 % of control
T/C [2]: 102 % of control
T/C (dose: 100.0 mg/kg/injection, schedule: Q01DX001 (ip), vehicle: Klucel (hydroxypropylcellulose) (HPC)): 102 % of control
T/C [10]: 100 % of control
T/C (dose: 200.0 mg/kg/injection, schedule: Q01DX001 (ip), vehicle: Klucel (hydroxypropylcellulose) (HPC)): 102 % of control
T/C (dose: 400.0 mg/kg/injection, schedule: Q01DX001 (ip), vehicle: Klucel (hydroxypropylcellulose) (HPC)): 96 % of control

CN(C)C1=C(N(C)C)C1N(C)C
T/C (dose: 10.0 mg/kg/injection, schedule: Q04DX003 (ip), vehicle: saline): 100 % of control
T/C (dose: 20.0 mg/kg/injection, schedule: Q04DX003 (ip), vehicle: saline): 97 % of control
T/C (dose: 40.0 mg/kg/injection, schedule: Q04DX003 (ip), vehicle: saline): 101 % of control

COc1cccc(/C=N\O)c1
T/C [6]: 104 % of control
T/C [7]: 100 % of control
T/C [14]: 104 % of control

CCOc1ccccc1NC(=O)CC(=O)N1N=C(C)C(N=Nc2ccccc2C(=O)O)C1=O (configuration not stated)
T/C [12]: 108 % of control
T/C (dose: 100.0 mg/kg/injection, schedule: Q01DX005 (ip), vehicle: saline with Tween-80): 104 % of control
T/C (dose: 200.0 mg/kg/injection, schedule: Q01DX005 (ip), vehicle: saline with Tween-80): 92 % of control

CCN(CC)CCCNc1cccc2c(C)cc(OC)nc12
T/C (dose: 12.5 mg/kg/injection, schedule: Q01DX009 (ip), vehicle: saline): 92 % of control
T/C (dose: 25.0 mg/kg/injection, schedule: Q01DX009 (ip), vehicle: saline): 90 % of control
T/C [1]: 86 % of control
